# Literature values in US10478388B2, “Skin engaging shaving aid member comprising at least one thermally resilient sensate” (The Gillette Company, priority 2012, dated 2019).
# Legend:
# [1] = concentration where the cooling effect could be clearly recognized
# [2] = compared to menthol at 2 ppm
SMILES,Cooling threshold [1],Cooling as compared to menthol [2]
"CC(C)[C@@H]1CC[C@@H](C)C[C@@H]1O [Example 1-neomenthol, 1-neomenthol]","about 3,000 ppb",
CC(C)[C@@H]1CC[C@@H](C)C[C@H]1O [L-menthol],about 800 ppb,
"CC(C)[C@@H]1CC[C@@H](C)C[C@H]1C(=O)Nc1ccc(CC#N)cc1 [N-[4-(cyanomethyl)phenyl]-(1R,2S,5R)-2-isopropyl-5-methylcyclohexanecarboxamide]",,about 10 ×
CC(C)[C@@H]1CC[C@@H](C)C[C@@H]1O [d-neomenthol],"about 25,000 ppb",
